The values below come from ChEMBL document CHEMBL4007403, “Identification of Triazolothiadiazoles as Potent Inhibitors of the dCTP Pyrophosphatase 1” (J Med Chem, 2017).

≈ marks a conversion by molar mass, not a printed value. Bounds are passed on as bounds.

Data set [1] in a line: Half life in mouse liver microsomes up to 100 uM preincubated for 10 mins followed by NADPH addition by UPLC-MS analysis. The data set is classed as ADME, microsome. A general note: Liver microsomes are a subcellular fraction often used to study metabolism.
The nature of data set [2]: Stability of the compound in DMSO measured after several months by HPLC-MS analysis. The data set is classed as physicochemical.
Data set [3] is described as follows: Stability of the compound in biochemical assay buffer under basic mobile phase conditions by HPLC-MS analysis. The data set is classed as physicochemical.
Data set [4] can be described thus: Half life in human liver microsomes up to 100 uM preincubated for 10 mins followed by NADPH addition by UPLC-MS analysis. The data set is classed as ADME, microsome.
Data set [5] is described as follows: Hepatic extraction ratio in human liver microsomes up to 100 uM preincubated for 10 mins followed by NADPH addition by UPLC-MS analysis. The data set is classed as ADME, microsome. Conditions: read-out: ERH.
Data set [6] in a line: Intracellular bioavailability in human HL60 cells assessed as ratio of fraction unbound in cells to intracellular drug accumulation at 0.5 uM after 45 mins by LC-MS/MS analysis. The data set is classed as ADME. Conditions: hl-60, 0.75 h.
The target in data set [7] is T1, dCTP pyrophosphatase 1 (Homo sapiens) (UniProt Q9H773).
T1 sequence (whole entry): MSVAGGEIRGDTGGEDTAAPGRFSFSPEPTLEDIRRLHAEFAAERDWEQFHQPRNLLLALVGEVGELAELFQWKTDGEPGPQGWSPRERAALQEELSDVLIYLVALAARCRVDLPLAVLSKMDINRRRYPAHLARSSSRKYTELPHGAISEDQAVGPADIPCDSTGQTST
Description: Binding affinity to recombinant human N-terminal His-tagged dCTPase 1 expressed in Escherichia coli BL21(DE3)pLysS assessed as change in melting temperature at 33 uM by Sypro Orange dye based DSF assay

The target of another data set is T2, dCTP pyrophosphatase 1 (Homo sapiens, UniProt Q9H773).
T2 sequence (Q9H773 whole entry): T1 sequence (whole entry)
The data set can be described thus: Inhibition of recombinant human N-terminal His-tagged dCTPase 1 expressed in Escherichia coli BL21(DE3)pLysS using dCTP as substrate after 1 hr by malachite green reagent based assay.

A short description of data set [8]: Stability of the compound in biochemical assay buffer under mildly acidic mobile phase conditions by HPLC-MS analysis. The data set is classed as physicochemical.
Data set [9] in a line: Kinetic solubility of the compound. To be noted: read-out: Kinetic_solubility. The data set is classed as physicochemical.
Data set [10] can be described thus: Hepatic extraction ratio in mouse liver microsomes up to 100 uM preincubated for 10 mins followed by NADPH addition by UPLC-MS analysis. The data set is classed as ADME, microsome. To be noted: read-out: ERH.
A further data set relates to HL-60. The data set can be described thus: Cytotoxicity against human HL60 cells assessed as decrease in cell viability at 1 to 5 uM after 72 hrs by resazurin assay. The data set is classed as cell-based. Conditions: hl-60, 72 h. (Alamar Blue is a resazurin reagent that responds to reducing activity.)
Data set [11] deals with Inosine triphosphate pyrophosphatase (Homo sapiens, UniProt Q9BY32). The data set can be described thus: Inhibition of human His-tagged ITPase expressed in bacterial expression system after 1 hr by malachite green reagent based assay.
In data set [12] the target is T3, Uridine diphosphate glucose pyrophosphatase NUDT14 (Homo sapiens, UniProt O95848).
T3 sequence (O95848 whole entry): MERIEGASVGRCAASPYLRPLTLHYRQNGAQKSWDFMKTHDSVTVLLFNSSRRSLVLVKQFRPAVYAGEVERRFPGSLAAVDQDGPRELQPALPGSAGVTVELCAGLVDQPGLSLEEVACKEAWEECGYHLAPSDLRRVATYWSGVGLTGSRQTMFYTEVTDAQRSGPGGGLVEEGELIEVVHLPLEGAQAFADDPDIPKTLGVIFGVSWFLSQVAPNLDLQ
In words: Inhibition of human His-tagged NUDT14 expressed in bacterial expression system after 1 hr by malachite green reagent based assay.

Data set [13] deals with Bis(5'-nucleosyl)-tetraphosphatase [asymmetrical] (Homo sapiens, UniProt P50583). The data set can be described thus: Inhibition of NUDT2 (unknown origin) by malachite green reagent based assay.
Bis(5'-nucleosyl)-tetraphosphatase [asymmetrical], sequence (P50583 whole entry): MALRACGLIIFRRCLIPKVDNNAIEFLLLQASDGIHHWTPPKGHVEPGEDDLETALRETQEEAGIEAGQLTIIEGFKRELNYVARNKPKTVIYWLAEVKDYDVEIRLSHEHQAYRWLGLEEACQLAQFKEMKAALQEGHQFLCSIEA
Data set [14] concerns the target T4, Nucleotide triphosphate diphosphatase NUDT15 (Homo sapiens, UniProt Q9NV35).
T4 sequence (Q9NV35 whole entry): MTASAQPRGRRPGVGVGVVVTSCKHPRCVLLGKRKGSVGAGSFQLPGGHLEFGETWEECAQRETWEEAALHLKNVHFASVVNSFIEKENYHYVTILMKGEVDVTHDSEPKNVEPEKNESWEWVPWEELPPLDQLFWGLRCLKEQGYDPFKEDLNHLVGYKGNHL
The data set can be described thus: Inhibition of human His-tagged NUDT15 expressed in bacterial expression system after 1 hr by malachite green reagent based assay.

Data set [15] has as its target ADP-sugar pyrophosphatase (Homo sapiens, UniProt Q9UKK9). The data set can be described thus: Inhibition of human His-tagged NUDT5 expressed in bacterial expression system in presence of ADP after 1 hr by malachite green reagent based assay.
The target of data set [16] is Oxidized purine nucleoside triphosphate hydrolase (Homo sapiens, UniProt P36639). In words: Inhibition of recombinant human MTH1 using dGTP as substrate after 1 hr by malachite green reagent based assay.
Data set [17] can be described thus: Inhibition of human His-tagged dUTPase expressed in bacterial expression system after 1 hr by malachite green reagent based assay.
For data set [18], the target named is T5, ADP-ribose pyrophosphatase, mitochondrial (Homo sapiens, UniProt Q9BW91).
T5 sequence (Q9BW91 whole entry): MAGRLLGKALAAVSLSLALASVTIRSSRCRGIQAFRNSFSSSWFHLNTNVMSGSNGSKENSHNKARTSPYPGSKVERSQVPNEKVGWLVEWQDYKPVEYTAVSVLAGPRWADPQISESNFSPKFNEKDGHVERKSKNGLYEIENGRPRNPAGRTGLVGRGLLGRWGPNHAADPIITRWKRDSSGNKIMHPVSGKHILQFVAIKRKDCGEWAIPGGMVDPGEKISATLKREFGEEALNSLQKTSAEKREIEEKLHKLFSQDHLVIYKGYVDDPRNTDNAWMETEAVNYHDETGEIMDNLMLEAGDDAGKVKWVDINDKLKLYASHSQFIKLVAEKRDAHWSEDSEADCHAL
In words: Inhibition of NUDT9 (unknown origin) by malachite green reagent based assay.

Data set [19] is described as follows: Metabolic stability in human plasma after 4 hrs. The data set is classed as ADME, cell-free. To be noted: read-out: Stability.
A short description of data set [20]: Fraction unbound in human plasma. The data set is classed as ADME, cell-free.

What is called half-life is the time needed for the level to fall by half in the phase considered. Broadly, the ΔTm is the change in melting temperature against a reference sample. As a reminder, the IC50 is the midpoint of a concentration-inhibition curve. `Cc1cc(-c2nn3c(-c4cccs4)nnc3s2)n[nH]1`: the half-life in data set [1] was 2 min; in [4], 14 min. Further, the Stability result in data set [2], in data set [3] and in data set [8] was “Stable” in each case. For the same compound, the results for the hepatic extraction ratio in [5] and in [10] were 0.79 and 0.97, respectively. Besides, the Ratio in data set [6] came out at 0.78. The ΔTm in [7] amounted to 0.9 °C. Further, the IC50 at dCTP pyrophosphatase 1 was above 10000 nM. The solubility kinetic in [9] was determined as 58 µM (≈ 16.7 µg/mL).

Turning to `c1ccc(-c2nnc3sc(-c4ccc5c(c4)OCO5)nn23)nc1`, the results for the half-life in data set [1] and in data set [4] were 1 min and 3 min, respectively. The Stability result in [2], in [3] and in [8] was “Stable” in each case. Further, the hepatic extraction ratio in [5] is 0.96; in data set [10] it was 0.99. Besides, the Ratio in [6] came to 3.5. In addition, the ΔTm in data set [7] worked out at 3.1 °C. Besides, at dCTP pyrophosphatase 1, the IC50 worked out at 190 nM. For the same compound, the solubility kinetic in data set [9] turned out to be 25 µM (≈ 8.08 µg/mL).

`COc1ccc(-c2nn3c(-c4ccco4)nnc3s2)cc1OC`: the half-life in data set [1] was found to be 1 min; in [4] it was 5 min. The Stability entry in data set [2], in data set [3] and in data set [8] was “Stable” each time. In addition, the hepatic extraction ratio in data set [5] is 0.91; in data set [10], 0.99. Also, the IC50 on dCTP pyrophosphatase 1 was 19 nM. Further, the solubility kinetic in data set [9] stood at 19 µM (≈ 6.24 µg/mL). Moreover, the Activity entry in the data set with HL-60 is “Non-Toxic”.

On to `COc1ccc(-c2nn3c(-c4cccs4)nnc3s2)cc1OC`, for which the 50% inhibitory concentration (IC50) in [11], in [12], in data set [13], in data set [14], in data set [15] and in data set [16] was above 100000 nM in each case. In addition, the IC50 in [17] and in data set [18] was above 100000 nM throughout. Also, the half-life in data set [1] stood at 1 min; in data set [4] it was 4 min. Further, the Stability result in data set [2], in [3] and in data set [8] was “Stable” in each case. The solubility kinetic in [9] turned out to be 3 µM (≈ 1.03 µg/mL). The Activity result with HL-60 is listed as “Non-Toxic”.

Take `c1csc(-c2nnc3sc(-c4cnccn4)nn23)c1`: the half-life was determined as 1 min in data set [1] and 6 min in data set [4]. Besides, the Stability entry in data set [2], in data set [3] and in [8] was “Stable” throughout. Further, the values for the hepatic extraction ratio in data set [5] and in data set [10] were 0.89 and 0.99, respectively. Further, on dCTP pyrophosphatase 1, the half-maximal inhibitory concentration (IC50) was found to be 170 nM. Moreover, the solubility kinetic in data set [9] was 30 µM (≈ 8.59 µg/mL).

Regarding `CCOc1ccc(-c2nn3c(-c4ccccn4)nnc3s2)cc1`, the Stability result in data set [2], in [3] and in [8] was “Stable” each time. Further, the half-maximal inhibitory concentration (IC50) at dCTP pyrophosphatase 1 was 449 nM.

In the case of `CN(C)c1ccc(-c2nn3c(-c4ccccn4)nnc3s2)cc1`, the Stability result in data set [2], in [3] and in data set [8] was “Stable” throughout. Further, at dCTP pyrophosphatase 1, the IC50 came out at 291 nM.

As to `COc1ccc(-c2nn3c(-c4ccccc4F)nnc3s2)cc1`, the Stability entry in [2], in data set [3] and in data set [8] was “Stable” in each case. In addition, the concentration for half-maximal inhibition (IC50) at dCTP pyrophosphatase 1 was determined as 208 nM.

In the case of `Clc1cccc(-c2nn3c(-c4ccccn4)nnc3s2)c1`, the Stability entry in data set [2], in [3] and in data set [8] was “Stable” each time. In addition, the IC50 at dCTP pyrophosphatase 1 stood at 271 nM.

As a reminder, the fraction unbound is the share of the substance not bound to proteins or other matrix. A higher fraction unbound goes with weak binding. Consider `COc1ccc(-c2nn3c(-c4ccccn4)nnc3s2)cc1OC`, for which the results for the half-life in data set [1] and in data set [4] were 3 min and 21 min, respectively. Further, the Stability entry in data set [2], in data set [3] and in data set [8] was “Stable” throughout. In addition, the remaining at 4 h in data set [19] is 100%. The figures for the hepatic extraction ratio in [5] and in data set [10] were 0.67 and 0.95, respectively. Further, the Ratio in data set [6] was determined as 0.15. In addition, in [20], the fraction unbound is 0.063. The thermal shift (ΔTm) in data set [7] was determined as 9.4 °C. In addition, the IC50 at dCTP pyrophosphatase 1 was 79 to 94 nM. For the same compound, the solubility kinetic in data set [9] is 27 µM (≈ 9.16 µg/mL). The Activity entry in the data set on HL-60 is “Non-Toxic”.

Regarding `Clc1ccccc1-c1nn2c(-c3ccccn3)nnc2s1`, the Stability result in data set [2], in data set [3] and in data set [8] was “Stable” each time. Further, on dCTP pyrophosphatase 1, the IC50 was 440 nM.

As to `Fc1ccccc1-c1nn2c(-c3ccccn3)nnc2s1`, the Stability result in [2], in data set [3] and in [8] was “Stable” in each case. Also, the IC50 at dCTP pyrophosphatase 1 was determined as 670 nM.

On to `Cc1ccc(-c2nn3c(-c4ccccn4)nnc3s2)cc1C`, for which the Stability entry in [2], in data set [3] and in data set [8] was “Stable” each time. At dCTP pyrophosphatase 1, the IC50 came to 227 nM.

As to `COc1cc(OC)cc(-c2nn3c(-c4ccccn4)nnc3s2)c1`, the Stability entry in data set [2], in data set [3] and in data set [8] was “Stable” each time. For the same compound, the IC50 on dCTP pyrophosphatase 1 is 276 nM.
